Laboratory results taken from patent publication US20260262643A1, “HERBICIDAL BENZOXAZINES” (FMC CORPORATION, priority 2022, published 2026).

Experiments:
rice = assay: Test D flooded paddy test; type: in vivo, Oryza sativa; settings: 250 g ai/ha, applied to paddy water, visual rating after 13 to 14 days, scale 0 to 100 (0 no effect, 100 complete control)
Outline: (§1)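 2-leaf plants; flood 3 cm above soil; compound dosed into paddy water; greenhouse 13–14 d; visual rating vs controls, 0–100 (100 = complete control); dash = not tested.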

barnyardgrass [1] = assay: Test C postemergence; type: in vivo, Echinochloa crusgalli; settings: 10 days, 0 to 100 scale (0 no effect, 100 complete control)
Outline: (§2)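 Visual injury score, 0–100 (100 = complete control), taken 10 days after treatment relative to untreated controls. Pre: directed spray onto soil over sown seeds. Post: foliar spray at one- to two-leaf stage, 2–10 cm. Solvent/surfactant formulation; loam–sand soil; greenhouse.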

corn [2] = assay: Test C preemergence; type: in vivo, Zea mays
Outline: as §2

barnyardgrass [3] = assay: Test C preemergence; type: in vivo, Echinochloa crusgalli
Outline: as §2

sedge, umbrella = assay: Test D flooded paddy test; type: in vivo, Cyperus difformis; settings: 250 g ai/ha, applied to paddy water, visual rating after 13 to 14 days, scale 0 to 100 (0 no effect, 100 complete control)
Outline: as §1

corn [4] = assay: Test C postemergence; type: in vivo, Zea mays; settings: 10 days, 0 to 100 scale (0 no effect, 100 complete control)
Outline: as §2

kochia [5] = assay: Test C preemergence; type: in vivo, Bassia scoparia
Outline: as §2

oat, wild [6] = assay: Test C preemergence; type: in vivo, Avena fatua
Outline: as §2

wheat [7] = assay: Test C postemergence; type: in vivo, Triticum aestivum; settings: 10 days, 0 to 100 scale (0 no effect, 100 complete control)
Outline: as §2

kochia [8] = assay: Test C postemergence; type: in vivo, Bassia scoparia; settings: 10 days, 0 to 100 scale (0 no effect, 100 complete control)
Outline: as §2

pigweed, palmer [9] = assay: Test C preemergence; type: in vivo, Amaranthus palmeri
Outline: as §2

horseweed = assay: Test C postemergence; type: in vivo, Erigeron canadensis; settings: 10 days, 0 to 100 scale (0 no effect, 100 complete control)
Outline: as §2

ducksalad = assay: Test D flooded paddy test; type: in vivo, Heteranthera limosa; settings: 250 g ai/ha, applied to paddy water, visual rating after 13 to 14 days, scale 0 to 100 (0 no effect, 100 complete control)
Outline: as §1

ragweed [10] = assay: Test C postemergence; type: in vivo, Ambrosia artemisiifolia; settings: 10 days, 0 to 100 scale (0 no effect, 100 complete control)
Outline: as §2

ryegrass, Italian [11] = assay: Test C postemergence; type: in vivo, Lolium multiflorum; settings: 10 days, 0 to 100 scale (0 no effect, 100 complete control)
Outline: as §2

blackgrass [12] = assay: Test C postemergence; type: in vivo, Alopecurus myosuroides; settings: 10 days, 0 to 100 scale (0 no effect, 100 complete control)
Outline: as §2

galium = assay: Test C postemergence; type: in vivo, Galium aparine; settings: 10 days, 0 to 100 scale (0 no effect, 100 complete control)
Outline: as §2

ragweed [13] = assay: Test C preemergence; type: in vivo, Ambrosia artemisiifolia
Outline: as §2

blackgrass [14] = assay: Test C preemergence; type: in vivo, Alopecurus myosuroides
Outline: as §2

pigweed, palmer [15] = assay: Test C postemergence; type: in vivo, Amaranthus palmeri; settings: 10 days, 0 to 100 scale (0 no effect, 100 complete control)
Outline: as §2

oat, wild [16] = assay: Test C postemergence; type: in vivo, Avena fatua; settings: 10 days, 0 to 100 scale (0 no effect, 100 complete control)
Outline: as §2

green foxtail [17] = assay: Test C preemergence; type: in vivo, Setaria viridis
Outline: as §2

soybean [18] = assay: Test C preemergence; type: in vivo, Glycine max
Outline: as §2

green foxtail [19] = assay: Test C postemergence; type: in vivo, Setaria viridis; settings: 10 days, 0 to 100 scale (0 no effect, 100 complete control)
Outline: as §2

soybean [20] = assay: Test C postemergence; type: in vivo, Glycine max; settings: 10 days, 0 to 100 scale (0 no effect, 100 complete control)
Outline: as §2

wheat [21] = assay: Test C preemergence; type: in vivo, Triticum aestivum
Outline: as §2

barnyardgrass [22] = assay: Test D flooded paddy test; type: in vivo, Echinochloa crus-galli; settings: 250 g ai/ha, applied to paddy water, visual rating after 13 to 14 days, scale 0 to 100 (0 no effect, 100 complete control)
Outline: as §1

ryegrass, Italian [23] = assay: Test C preemergence; type: in vivo, Lolium multiflorum
Outline: as §2

[24] = 500 g ai/ha, preemergence, 0 to 100 scale (0 no effect, 100 complete control)
[25] = Preemergence, 125 g ai/ha, 0 to 100 scale, 0 no effect, 100 complete control

CC(C)c1ncn(-c2cccc(C(=O)N3CC(C(F)(F)F)Oc4c(Cl)cccc43)c2)n1 (stereo not shown) [Compound 348]
Plant response rating, Rice (Flood) (rice): 0 | Plant response rating, Barnyardgrass (barnyardgrass [1]; 500 g ai/ha, postemergence): 40 | Plant response rating, Barnyardgrass (barnyardgrass [1]; Postemergence, 125 g ai/ha): 10 | Corn plant response rating (corn [2]; [24]): 0 | Plant response rating, Corn (corn [2]; [25]): 0 | Barnyardgrass plant response rating (barnyardgrass [3]; [24]): 100 | Plant response rating, Barnyardgrass (barnyardgrass [3]; [25]): 60 | Plant response rating, Sedge, Umbrella (Flood) (sedge, umbrella): 45 | Plant response rating, Corn (corn [4]; 500 g ai/ha, postemergence): 30 | Plant response rating, Corn (corn [4]; Postemergence, 125 g ai/ha): 10 | Kochia plant response rating (kochia [5]; [24]): 100 | Plant response rating, Kochia (kochia [5]; [25]): 90 | Oat, Wild plant response rating (oat, wild [6]; [24]): 90 | Plant response rating, Oat, Wild (oat, wild [6]; [25]): 60 | Plant response rating, Wheat (wheat [7]; 500 g ai/ha, postemergence): 30 | Plant response rating, Wheat (wheat [7]; Postemergence, 125 g ai/ha): 10 | Plant response rating, Kochia (kochia [8]; 500 g ai/ha, postemergence): 100 | Plant response rating, Kochia (kochia [8]; Postemergence, 125 g ai/ha): 70 | Pigweed, Palmer plant response rating (pigweed, palmer [9]; [24]): 100 | Plant response rating, Pigweed, Palmer (pigweed, palmer [9]; [25]): 100 | Plant response rating, Horseweed (horseweed; 500 g ai/ha, postemergence): 40 | Plant response rating, Horseweed (horseweed; Postemergence, 125 g ai/ha): 0 | Plant response rating, Ducksalad (Flood) (ducksalad): 75 | Plant response rating, Ragweed (ragweed [10]; 500 g ai/ha, postemergence): 60 | Plant response rating, Ragweed (ragweed [10]; Postemergence, 125 g ai/ha): 30 | Plant response rating, Ryegrass, Italian (ryegrass, Italian [11]; 500 g ai/ha, postemergence): 70 | Plant response rating, Ryegrass, Italian (ryegrass, Italian [11]; Postemergence, 125 g ai/ha): 30 | Plant response rating, Blackgrass (blackgrass [12]; 500 g ai/ha, postemergence): 100 | Plant response rating, Blackgrass (blackgrass [12]; Postemergence, 125 g ai/ha): 70 | Plant response rating, Galium (galium; 500 g ai/ha, postemergence): 100 | Plant response rating, Galium (galium; Postemergence, 125 g ai/ha): 100 | Ragweed plant response rating (ragweed [13]; [24]): 20 | Plant response rating, Ragweed (ragweed [13]; [25]): 20 | Blackgrass plant response rating (blackgrass [14]; [24]): 90 | Plant response rating, Blackgrass (blackgrass [14]; [25]): 50 | Plant response rating, Pigweed, Palmer (pigweed, palmer [15]; 500 g ai/ha, postemergence): 100 | Plant response rating, Pigweed, Palmer (pigweed, palmer [15]; Postemergence, 125 g ai/ha): 90 | Plant response rating, Oat, Wild (oat, wild [16]; 500 g ai/ha, postemergence): 60 | Plant response rating, Oat, Wild (oat, wild [16]; Postemergence, 125 g ai/ha): 20 | Foxtail, Green plant response rating (green foxtail [17]; [24]): 100 | Plant response rating, Foxtail, Green (green foxtail [17]; [25]): 100 | Soybean plant response rating (soybean [18]; [24]): 80 | Plant response rating, Soybean (soybean [18]; [25]): 40 | Plant response rating, Foxtail, Green (green foxtail [19]; 500 g ai/ha, postemergence): 70 | Plant response rating, Foxtail, Green (green foxtail [19]; Postemergence, 125 g ai/ha): 50 | Plant response rating, Soybean (soybean [20]; 500 g ai/ha, postemergence): 100 | Plant response rating, Soybean (soybean [20]; Postemergence, 125 g ai/ha): 100 | Wheat plant response rating (wheat [21]; [24]): 80 | Plant response rating, Wheat (wheat [21]; [25]): 50 | Plant response rating, Barnyardgrass (Flood) (barnyardgrass [22]): 30 | Ryegrass, Italian plant response rating (ryegrass, Italian [23]; [24]): 100 | Plant response rating, Ryegrass, Italian (ryegrass, Italian [23]; [25]): 90
